Data on three molecules can be found in patent publication US9084734B2, “Peptide personal care compositions and methods for their use” (Danisco US Inc., priority 2005, dated 2015).

Bridge positions count the residues as written; N and C are the ends. Peptide text beside a SMILES is read from it.

Data set [1] addresses T1, Human VEGF165 (Homo sapiens, UniProt P15692).
T1 construct: purchased Biosource
T1 sequence (P15692 27-191 isoform P15692-4): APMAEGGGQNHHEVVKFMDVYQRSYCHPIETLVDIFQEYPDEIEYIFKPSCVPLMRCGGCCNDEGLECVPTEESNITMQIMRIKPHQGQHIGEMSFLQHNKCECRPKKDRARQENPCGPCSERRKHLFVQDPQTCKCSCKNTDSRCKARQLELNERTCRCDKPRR
As to the kind of experiment: BIAcore binding analysis of VEGF-binding peptides (surface plasmon resonance). As to conditions: two state reaction model with conformation change; 25° C. As for the experimental part:
FIG. 3 provides results of a BIACORE binding analysis of VEGF binding peptides. Binding curves were obtained as described in the Examples. Data were fit to a two state reaction model with conformation change: Analyte (A) binds to ligand (B) to form complex AB.
In this Example, experiments conducted to assess the affinities of the peptides for VEGF are described. Affinities of the peptides for VEGF were measured using a BIAcore™-3000 surface plasmon resonance system (Biacore). A CM5 sensor chip was conditioned with 50 mM NaOH, 0.1% HCl, 0.1% SDS, and 0.08% H3PO4, and activated for covalent coupling of VEGF using N-ethyl-N′-(3-dimethylaminopropyl)-carbodiimide hydrochloride (EDC) and N-hydroxysuccinimide (NHS) according to the supplier's instructions (Biacore). Human VEGF165 (Biosource) was diluted to 5 μg/ml in 20 mM sodium acetate, pH 4.8 and injected at a flow rate of 2 μl/min to achieve approximately 1000 to 6000 response units (RU) of coupled protein. TNF-alpha (human TNF-alpha, Biosource, Int., Camarillo, Calif.) was similarly coupled to the CM5 sensor chip to approximately 850 to 3500 RU in the reference lane. A solution of 1 M ethanolamine was injected as a blocking agent. In some experiments, an additional solution of EDC and NHS were injected to improve baseline stability and a solution of 1 M ethanolamine injected as a blocking agent. The reference lane was activated with EDC and NHS and blocked with ethanolamine.
Peptides were synthesized using standard FMOC chemistry, purified by reverse phase HPLC to >95% purity (SynPep), and stored at 10 mg/mL in DMSO. For kinetic measurements, twofold serial diluted peptides in HBS-EP buffer, 0.01 M HEPES pH 7.4, 0.15 M NaCl, 3 mM EDTA, 0.005% Surfactant P20 (Biacore), were injected at 25° C. at a flow rate of 20 μL/min. Two-fold serial diluted DMSO samples and buffer samples were also injected for background subtraction. Kinetic parameters were calculated using BIAevaluation 3.1 software.
Background: In SPR one partner is held on a chip, and binding of the other changes the refractive index at the surface.

The subject of data set [2] is human umbilical vein endothelial cells (HUVEC). As to the kind of experiment: In vitro HUVEC proliferation assay (MTS) for hVEGF inhibitory peptides. The class given is cell-based. To be noted: 10 ng/ml VEGF, 48 hrs. The protocol: FIG. 12 provides a graph showing HUVEC results for designated peptides.
In this Example, experiments conducted to determine the anti-proliferative activity of anti-VEG peptides are described. The antiproliferative activity of VEGF inhibitory peptides was determined using human umbilical vein endothelial cells (HUVEC) as follows. An early passage (less than six) of HUVEC was seeded in 96-well plates at 5000 cells per well and starved for 18 hrs in 200 μl EBM medium (Cambrex) without growth factors and supplemented with 0.5% FBS, at 37° C. with 5% CO2. The medium was replaced with 180 μl of growth medium containing EBM medium with 5% fetal bovine serum and 1% DMSO. Then, 20 μl of VEGF preincubated for one hour with varying peptide concentrations (the final DMSO concentration of all the wells was 1%) were added to the wells for a final VEGF concentration of 10 ng/ml. Human VEGF antibody (R & D Systems) was used as a positive control. Cells with 0.31 to 20 ng/ml concentrations of VEGF alone in the growth medium were used to construct a standard growth curve. The cells were further incubated for 48 hrs, and the cell proliferation was measured using an MTS assay (CellTiter 96 Aqueous One Solution Cell Proliferation Assay Kit; Promega). Then, 40 μl of the MTS tetrazolium solution was added to each well and after 3 and 4 hours incubation, the plates were read at 490 nm. […]

The test system of another data set is human skin. As to the kind of experiment: Repeat insult patch testing (RIPT) on human skin. Format: in vivo. As to conditions: 0.5% (w/v) in deionized water/butylene glycol; approximately 0.2 mL; 200 human volunteers. The protocol:
In this Example, experiments conducted to determine the patch test result for anti-VEGF peptides are described. Samples of the aVEGF peptide CK37281 dosed at 0.5% (w/v) were formulated in a base formulation containing deionized water/butylene glycol. Approximately 0.2 mL of the formulation was applied to 200 human volunteers in a repeated insult patch test according to procedures designed by Clinical Research Laboratories, Inc. (Piscataway, N.J.).

Data set [3] deals with T1, Human VEGF165. Kind of data set: BIAcore binding analysis of BBI-VEGF. As to conditions: refolded protein, trypsin and chymotrypsin coupled in remaining lanes. As for the experimental part: In this Example, experiments conducted to determine the binding affinity of constructs produced as indicated in Example 9 are described. Affinities of BBI-VEGF constructs for VEGF were measured using BIAcore-3000 surface plasmon resonance (Biacore). A CM5 sensor chip was conditioned with 50 mM NaOH and activated for covalent coupling of VEGF using N-ethyl-N′-(3-dimethylaminopropyl)-carbodiimide hydrochloride (EDC) and N-hydroxysuccinimide (NHS) according to the supplier's instructions (Biacore). VEGF (human VEGF165, Biosource) was diluted to 5 μg/mL in 20 mM sodium acetate, pH 4.8, and injected at a flow rate of 2 μL/min to achieve approximately 1000 to 6000 response units (RU) of coupled protein. Trypsin and chymotrypsin were similarly coupled to the CM5 sensor chip to approximately 850 to 3500 RU in remaining lanes. A solution of 1M ethanolamine was injected as a blocking agent.

With `CC(C)C[C@@H]1NC(=O)[C@H](CC(N)=O)NC(=O)[C@H](Cc2ccc(O)cc2)NC(=O)[C@@H](NC(=O)[C@H](C)N)CSSC[C@@H](C(=O)NCC(=O)NCC(=O)NCC(=O)O)NC(=O)[C@H]([C@@H](C)O)NC(=O)[C@H](Cc2c[nH]c3ccccc23)NC(=O)CNC(=O)[C@H](Cc2ccc(O)cc2)NC1=O` [CK37281, YNLYGWT], at Human VEGF165 [1], the ka2 is recorded as 1.5 e-3 s^−1 and the kd1 is 0.0122 s⁻¹. In addition, in data set [2], the IC50 entry is on record as “micromolar range”. The “dermal irritation or sensitization” value in the data set on human skin is given as “no dermal irritation or sensitization”.
With `CC(C)C[C@@H]1NC(=O)[C@H](CC(N)=O)NC(=O)[C@@H](NC(=O)[C@H](C)N)CSSC[C@@H](C(=O)NCC(=O)NCC(=O)NCC(=O)O)NC(=O)[C@H](Cc2c[nH]c3ccccc23)NC(=O)[C@H](Cc2ccccc2)NC(=O)[C@H](Cc2c[nH]cn2)NC(=O)[C@@H]2CCCN2C(=O)[C@H](Cc2c[nH]c3ccccc23)NC1=O` [CK37283] (H-ACNLWPHFWCGGG-OH; disulfide 2-10; N-terminus and C-terminus assumed), at Human VEGF165 [1], the affinity, expressed as Kd, was 4.9 µM; the ka2 is recorded as 6.34 e-3 s^−1; the kd1 is 0.318 s⁻¹. In addition, the IC50 result in data set [2] was “micromolar range”.

B1: BBI-VEGF1: BBI-VEGF fusion (SEQ ID NO:22) with only one of the binding loops replaced (protein)
chain: DDESSKPCCDQCACYNLYGWTCRCSDMRLNSCHSACKSCICALSYPAQCFCVDLTDFCEPCKPSEDDKEN
modifications: synthetic fusion peptide
Regarding B1, the “specific/selective binding to VEGF” value with Human VEGF165 [3] is recorded as “binds specifically to VEGF”; with Human VEGF165 [3] (listed as BBI-VEGF), “Selective binding affinity to VEGF”.
